Measurements taken from patent publication US12447149B2, “Formulations of vimseltinib” (Deciphera Pharmaceuticals, LLC, priority 2023, dated 2025).

How the values were obtained:
Assay type in all cases: physicochemical
[1] = Particle size distribution (PSD) of crystalline dihydrate form and seeds, DMAC-water crystallization; conditions: for Particle Size d10 / Particle Size d50 / Particle Size d90: milled seeds of crystalline dihydrate form used in DMAC-water crystallization; for particle size d10 of seeds / particle size d50 of seeds / particle size d90 of seeds: seeds used in DMAC-water crystallization
[2] = Particle size analysis by laser diffraction (Malvern Mastersizer 3000, wet dispersion); conditions: volume distribution
Experimental: Particle size analysis of dihydrate vimseltinib drug substance samples was determined by laser diffraction using a Malvern Mastersizer 3000 instrument in a wet dispersion mode.
Prior to analysis, dihydrate drug substance samples were rotated and inverted in the sample container at least 10 times to ensure homogeneity. Between 20 and 25 mg of sample was weighed into a Malvern Glass tube. 20 mL of the Dispersant Solution (0.1% Span 85 in Isoparaffin G) was added and vortexed until a homogeneous suspension was obtained (˜30 s). The sample was then placed in a Vibra-Cell ultrasonic processor. The amplitude was set to the target of 30% (4 Watts) using an external probe (Vibra-Cell) during 90 sec.
After background measurement, the sample dispersion was slowly added to the dispersion unit of the instrument to achieve an obscuration level target of 5%. The sample was stirred at 3250 rpm for at least 1 minute to ensure dispersion and stabilization of the sample. After stabilization, the measurement was started and performed using a Malvern Mastersizer 3000 according to the method conditions provided in Table 17.

[3] = Static storage stability of crystalline dihydrate and anhydrous forms (XRPD, DSC, KF weekly for four weeks)
Experimental: The stability of crystalline dihydrate and anhydrous forms of the compound represented by Formula (I) at varying relative humidity (RH) and temperature was investigated.
For example, the stability of crystalline dihydrate and anhydrous forms of the compound represented by Formula (I), as prepared according to Example 1 and Example 2, respectively, was studied under other conditions by placing aliquots of each form in static storage at conditions of 40° C./75% RH, 25° C./97% RH, 40° C./0% RH and 25° C./0% RH and analyzing the aliquots once weekly for four weeks using XRPD, DSC, and KF.

[4] = Hydration experiment: slurry of crystalline anhydrous form in deionized water, heat-cool cycles; conditions: 4-hour heat-cool cycles between 40° C. and room temperature for 72 hours
Experimental: In a hydration experiment, a slurry of the crystalline anhydrous form of the compound represented by Formula (I) and deionized water was subjected to successive 4-hour heat-cool cycles between 40° C. and room temperature for 72 hours.

[5] = Hydration of crystalline anhydrous form in low water activity solvents (XRPD); conditions: Ambient
Experimental: The hydration of the crystalline anhydrous form was studied using aqueous solvent systems with low water activity of 0.1. Slurries of the crystalline anhydrous form in the respective solvent were agitated for 6 days at room temperature. Aliquots of isolated materials were analyzed after 24, 48, and 144 hours of agitation. Table 12 summarizes the experiment conditions and isolated crystalline forms, as determined by XRPD.

Cc1nc(-c2cnc(NC(C)C)n(C)c2=O)ccc1Oc1ccnc(-c2cnn(C)c2)c1.O.O [Lot 3]
Particle Size d10 ([1]; listed as 3): 3 microns | Particle Size d50 ([1]; listed as 3): 6 microns | Particle Size d90 ([1]; listed as 3): 12 microns | D(10) ([2]; listed as 3): 6 μm | D(50) ([2]; listed as 3): 17 μm | D(90) ([2]; listed as 3): 33 μm

Cc1nc(-c2cnc(NC(C)C)n(C)c2=O)ccc1Oc1ccnc(-c2cnn(C)c2)c1.O.O [non-milled batch of crystalline dihydrate form of the compou]
particle size d10 of seeds [1]: about 5 μm | particle size d50 of seeds [1]: about 15 μm | particle size d90 of seeds [1]: about 36 μm

Cc1nc(-c2cnc(NC(C)C)n(C)c2=O)ccc1Oc1ccnc(-c2cnn(C)c2)c1
KF (%) ([3]; storage 25° C./0% RH, Week 1): 0.1% | XRPD ([3]; storage 25° C./0% RH, Week 1): Anhydrous | KF (%) ([3]; storage 25° C./0% RH, Week 2): 0.1% | XRPD ([3]; storage 25° C./0% RH, Week 2): Anhydrous | KF (%) ([3]; storage 25° C./0% RH, Week 3): 0.0% | XRPD ([3]; storage 25° C./0% RH, Week 3): Anhydrous | KF (%) ([3]; storage 25° C./0% RH, Week 4): 0.2% | XRPD ([3]; storage 25° C./0% RH, Week 4): Anhydrous | KF (%) ([3]; storage 25° C./97% RH, Week 1): 0.3% | XRPD ([3]; storage 25° C./97% RH, Week 1): Anhydrous | KF (%) ([3]; storage 25° C./97% RH, Week 2): 0.3% | XRPD ([3]; storage 25° C./97% RH, Week 2): Anhydrous | KF (%) ([3]; storage 25° C./97% RH, Week 3): 0.2% | XRPD ([3]; storage 25° C./97% RH, Week 3): Anhydrous | KF (%) ([3]; storage 25° C./97% RH, Week 4): 0.4% | XRPD ([3]; storage 25° C./97% RH, Week 4): Anhydrous | KF (%) ([3]; storage 40° C./0% RH, Week 1): 0.1% | XRPD ([3]; storage 40° C./0% RH, Week 1): Anhydrous | KF (%) ([3]; storage 40° C./0% RH, Week 2): 0.0% | XRPD ([3]; storage 40° C./0% RH, Week 2): Anhydrous | KF (%) ([3]; storage 40° C./0% RH, Week 3): 0.0% | XRPD ([3]; storage 40° C./0% RH, Week 3): Anhydrous | KF (%) ([3]; storage 40° C./0% RH, Week 4): 0.2% | XRPD ([3]; storage 40° C./0% RH, Week 4): Anhydrous | KF (%) ([3]; storage 40° C./75% RH, Week 1): 0.3% | XRPD ([3]; storage 40° C./75% RH, Week 1): Anhydrous | KF (%) ([3]; storage 40° C./75% RH, Week 2): 0.2% | XRPD ([3]; storage 40° C./75% RH, Week 2): Anhydrous | KF (%) ([3]; storage 40° C./75% RH, Week 3): 0.1% | XRPD ([3]; storage 40° C./75% RH, Week 3): Anhydrous | KF (%) ([3]; storage 40° C./75% RH, Week 4): 0.3% | XRPD ([3]; storage 40° C./75% RH, Week 4): Anhydrous

Cc1nc(-c2cnc(NC(C)C)n(C)c2=O)ccc1Oc1ccnc(-c2cnn(C)c2)c1.O.O [Lot 4]
D(10) ([2]; listed as 4): 7 μm | D(50) ([2]; listed as 4): 19 μm | D(90) ([2]; listed as 4): 36 μm

Cc1nc(-c2cnc(NC(C)C)n(C)c2=O)ccc1Oc1ccnc(-c2cnn(C)c2)c1 [crystalline anhydrous form]
isolated solid form by XRPD [4]: crystalline dihydrate form | Observed Forms ([5]; Acetone/water (99:1), 24 h): Anhydrous | Observed Forms ([5]; Acetone/water (99:1), 144 h): Anhydrous | Observed Forms ([5]; MEK/water (99:1), 24 h): Anhydrous | Observed Forms ([5]; MEK/water (99:1), 144 h): Dihydrate | stability of the solid form on storage ([3]; all storage conditions (40° C./75% RH, 25° C./97% RH, 40° C./0% RH, 25° C./0% RH), after 4 weeks): remained stable

Cc1nc(-c2cnc(NC(C)C)n(C)c2=O)ccc1Oc1ccnc(-c2cnn(C)c2)c1.O.O [milled seeds]
particle size d10 of seeds [1]: about 3 μm | particle size d50 of seeds [1]: about 6 μm | particle size d90 of seeds [1]: about 12 μm

Cc1nc(-c2cnc(NC(C)C)n(C)c2=O)ccc1Oc1ccnc(-c2cnn(C)c2)c1.O.O [crystalline dihydrate form ground in a mortar and pestle]
XRPD ([3]; storage 40° C./0% RH, Week 1): Pattern 4 and the crystalline anhydrous form were observed

Cc1nc(-c2cnc(NC(C)C)n(C)c2=O)ccc1Oc1ccnc(-c2cnn(C)c2)c1.O.O [Lot 2]
Particle Size d10 ([1]; listed as 2): 2 microns | Particle Size d50 ([1]; listed as 2): 6 microns | Particle Size d90 ([1]; listed as 2): 11 microns | D(10) ([2]; listed as 2): 6 μm | D(50) ([2]; listed as 2): 18 μm | D(90) ([2]; listed as 2): 37 μm
